PubChem BioAssay AID1963975 (Molecular Pharmacology Branch, DTP, NCI, 2024)

Tested on: 624824-186-R-J2-PDC multicell spheroids, viability
Experiment: Anticancer human tumor 624824-186-R-J2-PDC patient-derived colon adenocarcinoma cell line growth inhibition [PI3K]
Conditions: for IC50: curve of first compound; for viability, T/C: stronger effect = lower value
Procedure, shortened: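 Complex 3D spheroids (cancer cells + endothelial HUVEC + mesenchymal stem cells); drug pairs of targeted agent x inavolisib/alpelisib/duvelisib/copanlisib; half-log series from ~Cmax, max 10 microM if Cmax unknown; endpoint viability.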

[1] = second compound 0.0316 µM, first compound 0.0316 µM
[2] = second compound 0.0316 µM, first compound 0.1 µM
[3] = second compound 0.0316 µM, first compound 0.316 µM
[4] = second compound 0.0316 µM, first compound 1 µM
[5] = second compound 0.0316 µM, first compound 3.16 µM
[6] = second compound 0.0316 µM, first compound 10 µM
[7] = second compound 0.1 µM, first compound 0.0316 µM
[8] = second compound 0.1 µM, first compound 0.1 µM
[9] = second compound 0.1 µM, first compound 0.316 µM
[10] = second compound 0.1 µM, first compound 1 µM
[11] = second compound 0.1 µM, first compound 3.16 µM
[12] = second compound 0.1 µM, first compound 10 µM
[13] = second compound 0.316 µM, first compound 0.0316 µM
[14] = second compound 0.316 µM, first compound 0.1 µM
[15] = second compound 0.316 µM, first compound 0.316 µM
[16] = second compound 0.316 µM, first compound 1 µM
[17] = second compound 0.316 µM, first compound 3.16 µM
[18] = second compound 0.316 µM, first compound 10 µM
[19] = second compound 1 µM, first compound 0.0316 µM
[20] = second compound 1 µM, first compound 0.1 µM
[21] = second compound 1 µM, first compound 0.316 µM
[22] = second compound 1 µM, first compound 1 µM
[23] = second compound 1 µM, first compound 3.16 µM
[24] = second compound 1 µM, first compound 10 µM
[25] = second compound 3.16 µM, first compound 0.0316 µM
[26] = second compound 3.16 µM, first compound 0.1 µM
[27] = second compound 3.16 µM, first compound 0.316 µM
[28] = second compound 3.16 µM, first compound 1 µM
[29] = second compound 3.16 µM, first compound 3.16 µM
[30] = second compound 3.16 µM, first compound 10 µM
[31] = second compound 10 µM, first compound 0.0316 µM
[32] = second compound 10 µM, first compound 0.1 µM
[33] = second compound 10 µM, first compound 0.316 µM
[34] = second compound 10 µM, first compound 1 µM
[35] = second compound 10 µM, first compound 3.16 µM
[36] = second compound 10 µM, first compound 10 µM
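Note: spheroids exposed to agents for 7 days before viability read.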
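Throughout, for viability, T/C: 100% = DMSO vehicle treated spheroids.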

Question: Which results are given for `C#Cc1c(F)ccc2cc(O)cc(-c3ncc4c(N5CC6CCC(C5)N6)nc(OCC56CCCN5CC(F)C6)nc4c3F)c12` (centres undefined) + Cc1nc(NC(=O)N2CCCC2C(N)=O)sc1-c1ccnc(C(C)(C)C(F)(F)F)c1?
Answer: IC50 (second compound 0.0316 µM): > 10 µM; IC50 (second compound 0.1 µM): > 10 µM; IC50 (second compound 0.316 µM): > 10 µM; IC50 (second compound 1 µM): > 10 µM; IC50 (second compound 3.16 µM): > 10 µM; IC50 (second compound 10 µM): > 10 µM; viability, T/C [1]: 86.3%; viability, T/C [2]: 82.9%; viability, T/C [3]: 70.8%; viability, T/C [4]: 80.9%; viability, T/C [5]: 96.7%; viability, T/C [6]: 71%; viability, T/C [7]: 90.9%; viability, T/C [8]: 83.5%; viability, T/C [9]: 73%; viability, T/C [10]: 76.6%; viability, T/C [11]: 88.6%; viability, T/C [12]: 60.4%; viability, T/C [13]: 74.4%; viability, T/C [14]: 67.2%; viability, T/C [15]: 81.1%; viability, T/C [16]: 84.2%; viability, T/C [17]: 70.9%; viability, T/C [18]: 73.2%; viability, T/C [19]: 97%; viability, T/C [20]: 82.7%; viability, T/C [21]: 76.1%; viability, T/C [22]: 82.1%; viability, T/C [23]: 79.8%; viability, T/C [24]: 82.2%; viability, T/C [25]: 78.3%; viability, T/C [26]: 83.8%; viability, T/C [27]: 69.5%; viability, T/C [28]: 81.8%; viability, T/C [29]: 81.2%; viability, T/C [30]: 71.5%; viability, T/C [31]: 73.7%; viability, T/C [32]: 74.2%; viability, T/C [33]: 60%; viability, T/C [34]: 58.5%; viability, T/C [35]: 58%; viability, T/C [36]: 56.3%

Question: `CC1(C)CCC(Nc2ncc(C(F)(F)F)c(-c3c[nH]c4c(P(C)(C)=O)c(C#N)ccc34)n2)CN1` (centres undefined) + Cc1nc(NC(=O)N2CCCC2C(N)=O)sc1-c1ccnc(C(C)(C)C(F)(F)F)c1 was tested. Which IC50 (second compound 0.0316 µM) did it give?
Answer: 4.26 µM

Question: What about the IC50 (second compound 0.1 µM) of the same compound?
Answer: 4.34 µM

Question: And the IC50 (second compound 0.316 µM)?
Answer: 4.4 µM

Question: And the IC50 (second compound 1 µM)?
Answer: 4.64 µM

Question: And the IC50 (second compound 3.16 µM)?
Answer: 3.67 µM

Question: And the IC50 (second compound 10 µM)?
Answer: 1.61 µM

Question: What about the viability, T/C [1] of the same compound?
Answer: 81.3%

Question: What about the viability, T/C [2] of the same compound?
Answer: 99.4%

Question: What about the viability, T/C [3] of the same compound?
Answer: 103%

Question: What about the viability, T/C [4] of the same compound?
Answer: 121%

Question: What about the viability, T/C [5] of the same compound?
Answer: 64.8%

Question: What about the viability, T/C [6] of the same compound?
Answer: 7.6%

Question: And the viability, T/C [7]?
Answer: 92.7%

Question: And the viability, T/C [8]?
Answer: 92.9%

Question: What about the viability, T/C [9] of the same compound?
Answer: 99.4%

Question: What about the viability, T/C [10] of the same compound?
Answer: 108%

Question: And the viability, T/C [11]?
Answer: 66.1%

Question: What about the viability, T/C [12] of the same compound?
Answer: 7.74%

Question: And the viability, T/C [13]?
Answer: 100%

Question: And the viability, T/C [14]?
Answer: 81.8%

Question: What about the viability, T/C [15] of the same compound?
Answer: 92.1%

Question: And the viability, T/C [16]?
Answer: 115%

Question: And the viability, T/C [17]?
Answer: 67.6%

Question: What about the viability, T/C [18] of the same compound?
Answer: 6.46%

Question: What about the viability, T/C [19] of the same compound?
Answer: 96%

Question: What about the viability, T/C [20] of the same compound?
Answer: 93.4%

Question: And the viability, T/C [21]?
Answer: 97.7%

Question: What about the viability, T/C [22] of the same compound?
Answer: 93.6%

Question: What about the viability, T/C [23] of the same compound?
Answer: 72%

Question: What about the viability, T/C [24] of the same compound?
Answer: 5.53%

Question: And the viability, T/C [25]?
Answer: 79%

Question: And the viability, T/C [26]?
Answer: 83.8%

Question: And the viability, T/C [27]?
Answer: 91.4%

Question: What about the viability, T/C [28] of the same compound?
Answer: 74%

Question: What about the viability, T/C [29] of the same compound?
Answer: 57.3%

Question: What about the viability, T/C [30] of the same compound?
Answer: 5.49%

Question: And the viability, T/C [31]?
Answer: 77.8%

Question: And the viability, T/C [32]?
Answer: 73.8%

Question: And the viability, T/C [33]?
Answer: 62%

Question: What about the viability, T/C [34] of the same compound?
Answer: 54.5%

Question: And the viability, T/C [35]?
Answer: 45.2%

Question: And the viability, T/C [36]?
Answer: 6.69%
